Measured values as given in patent US20050256132A1, “Use of ER selective NF-kB inhibitors for the treatment of sepsis” (priority 2003, published 2005).

Assays:
ER/IL-6 = assay: Endothelial Cell ER/IL-6 Assay, IL-6 promoter luciferase (Table 2); type: cell-based, human; details: Homo sapiens, HAECT1, ERα infected HAECT-1 cells, IL-1β; for Emax: read-out: IL6 luc % Efficacy; for IC50: read-out: IL6 luc IC50
Outline: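 One lysate gave both read-outs: luciferase for ER/IL-6 and A340 rate after CK reagent for CK, with four-parameter logistic IC50/EC50. Cells were HAECT-1 aortic endothelial cells carrying adenoviral human ERα (or none), dosed […] at 34 °C from 2× stocks containing 2 ng/ml IL-1β and IL-6(1250 bp)-Luc adenovirus.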

CK = assay: Creatine kinase assay in ERα infected HAECT-1 cells (Table 2); type: cell-based, human; details: Homo sapiens; for EC50: HAECT1; for Emax: HAECT1, read-out: CK % Efficacy
Protocol: T-175 flasks of 100% confluent HAECT-1 cells (immortalized human aortic endothelial cells) were washed with 8 ml of HBSS (HEPES buffered saline solution) and infected for fours hours with 6 ml of a 1:10 dilution of Ad5-wt-hERα virus (an adenovirus transfection vector that mediates CMV promoter driven expression of human ERα) in phenol red free Endothelial Cell Basal medium (Clonetics, San Diego, Calif., Catalog # CC-3129) containing 0.25% bovine serum albumin (EDM-BSA). After four hours, cells were washed with EDM-BSA and incubated overnight in the same medium. Following overnight incubation, cells were washed with EDM-BSA and infected for 2 hours with 6 ml of a 1:10 dilution of Ad5-3x(NFκB).Luc virus (Adenovirus luciferase expression vector driven by three repeats of the MHC NFκb sites 5′ to the thymidine kinase promoter) in EDM-BSA. After two hours, cells were washed and incubated at 34° C. for one hour. Cells were then washed, trypsinized, counted, and resuspended in 95% FBS/5% dimethylsulfoxide at a concentration of […], frozen as 1 or 5 ml aliquots in cryo-vials and stored at −150° C. Control (no ER infection) cells were processed as above without Ad5-wt-hERα virus infection.
ERα infected HAECT-1 cells or control cells were thawed, diluted 42× in warm EBM-BSA, plated into 96-well plates at 0.1 ml/well and incubated for 4 hours at 34° C. Test compounds were added to the cells at 2× stocks in EBM-BSA containing 2 ng/ml IL-1β Ad6-IL-6(1250 bp).Luc virus and plates were returned to the incubator (34° C.). After […], cells were lysed with 50 μl of Promega Cell Culture Lysis reagenet for about 5 minutes at room temperature on a shaker. After lysing, 15 μl of lysate is transferred to luminometer plates for luciferase determination. Luciferase activity is evaluated using a Perkin Elmer Victor2 1420 multilabel counter. Creatine kinase was determined from the rate of increase in A340 following addition of 100 μl of CK assay reagent (Sigma catalog no. 47-10) to the remainder of the cell lysate.
For IC50 and EC50 calculations, mean IL-6, luciferase or CK values versus log10 of the compound concentration were fitted to a four parameter logistic equation. The IC50/EC50 value, ‘Hill slope,’ upper and lower limits of the curve were iteratively estimated.

## COc1ccccc1[C@H](c1cccc2ccccc12)[C@@](C)(C#N)C(=O)N1CCC(n2c(=O)[nH]c3ccccc32)CC1 [Example 183, (2S,3S)-3-(2-methoxyphenyl)-2-methyl-3-(1-naphthyl)-2-{[4-(2-oxo-2,3-dihydro-1H-benzimidazol-1-yl)piperidin-1-yl]carbonyl}propanenitrile]
ER/IL-6
  Emax: 196%
  IC50: 361 nM
other
  melting point: 197 to 200 °C
CK
  EC50: 481 nM
  Emax: 63%

## COC[C@](C#N)(C(=O)N1CCN(c2cnccn2)CC1)[C@H](c1ccccc1OC)c1cccc2ccccc12 [Example 223, (2S,3S)-2-(methoxymethyl)-3-(2-methoxyphenyl)-3-(1-naphthyl)-2-[(4-pyrazin-2-ylpiperazin-1-yl)carbonyl]propanenitrile]
ER/IL-6
  Emax: 154%
  IC50: 38 nM
other
  melting point: 149 °C
CK
  EC50: 318 nM
  Emax: 24%

## COc1ccccc1[C@H](c1cccc2ccccc12)[C@@](C)(C#N)C(=O)N1CCN(c2ncccn2)CC1 [Example 192, (2S,3S)-3-(2-methoxyphenyl)-2-methyl-3-(1-naphthyl)-2-[(4-pyrimidin-2-ylpiperazin-1-yl)carbonyl]propanenitrile]
ER/IL-6
  Emax: 176%
  IC50: 44 nM
other
  melting point: 153 to 154 °C
CK
  EC50: 415 nM

## COc1ccccc1[C@H](c1cccc2ccccc12)[C@@](C)(C#N)C(=O)N1CCN(c2cnccn2)CC1 [Example 214, (2S,3S)-3-(2-methoxyphenyl)-2-methyl-3-(1-naphthyl)-2-[(4-pyrazin-2-ylpiperazin-1-yl)carbonyl]propanenitrile]
ER/IL-6
  Emax: 136%
  IC50: 276 nM
other
  melting point: 143 to 144 °C
CK
  Emax: 12%

## COC(=O)[C@@](C#N)(CCN(C)C)[C@H](c1ccccc1OC)c1cccc2ccccc12 (relative stereo) [Example 157, Methyl (2S*)-2-cyano-4-(dimethylamino)-2-[(S*)-(2-methoxyphenyl)(1-naphthyl)methyl]butanoate]
ER/IL-6
  Emax: 110%
  IC50: 23 nM
other
  melting point: 142 to 144.5 °C
CK
  Emax: -100%

## COc1ccccc1[C@H](c1cccc2ccccc12)[C@@](C)(C#N)C(=O)N1CCN(CCN(C)C)CC1 [Example 216, (2S)-3-{4-[2-(dimethylamino)ethyl]piperazin-1-yl}-2-[(S)-(2-methoxyphenyl)(1-naphthyl)methyl]-2-methyl-3-oxopropanenitrile]
ER/IL-6
  Emax: 51%
other
  melting point: 84 to 85 °C
CK
  Emax: -21%

## COCCN1CCN(C(=O)C(C#N)(COCc2ccccc2)C(c2ccccc2OC)c2cccc3ccccc23)CC1 (stereo not drawn) [Example 207, 2-[(benzyloxy)methyl]-3-[4-(2-methoxyethyl)piperazin-1-yl]-2-[(2-methoxyphenyl)(1-naphthyl)methyl]-3-oxopropanenitrile]
ER/IL-6
  Emax: 63%
  IC50: 4000 nM
other
  melting point: 140 to 141 °C
CK
  Emax: -16%

## COC(=O)C(C)(C#N)C(c1ccccc1OC)c1ccnc2ccccc12 (stereo not drawn) [Example 160, Methyl 2-cyano-3-(2-methoxyphenyl)-2-methyl-3-(quinolin-4-yl)propanoate]
ER/IL-6
  Emax: 82%
  IC50: 1260 nM
other
  melting point: 192 to 193.9 °C
CK
  Emax: -10%

## COC[C@@](C#N)(C(=O)OC)[C@@H](c1ccccc1OC)c1cccc2ccccc12 [Example 151, Methyl (2R,3R)-2-cyano-2-(methoxymethyl)-3-(2-methoxyphenyl)-3-(1-naphthyl)propanoate]
ER/IL-6
  Emax: 141%
  IC50: 5.5 nM
other
  melting point: 175.6 to 177.6 °C
CK
  EC50: 13.5 nM
  Emax: 30%

## COC(=O)[C@](C#N)(Cc1cccnc1)[C@@H](c1ccccc1OC)c1cccc2ccccc12 [Example 155, Methyl (2R,3R)-2-cyano-3-(2-methoxyphenyl)-3-(1-naphthyl)-2-(pyridin-3-ylmethyl)propanoate]
ER/IL-6
  Emax: 105%
  IC50: 2 nM
other
  melting point: 193 °C (dec.)
CK
  EC50: 6 nM
  Emax: 33%

## COC(=O)[C@@](C#N)(Cc1ccc(Br)cc1)[C@H](c1ccccc1OC)c1cccc2ccccc12 (relative stereo) [Example 152, Methyl (2S*,3S*)-2-(4-bromobenzyl)-2-cyano-3-(2-methoxyphenyl)-3-(1-naphthyl)propanoate]
ER/IL-6
  Emax: 130%
  IC50: 19 nM
other
  melting point: 218 to 219 °C
CK
  EC50: 85 nM
  Emax: 14%

## COc1ccccc1[C@H](c1cccc2ccccc12)[C@@](C)(C#N)C(=O)N1CCC(O)(c2ccc(Cl)cc2)CC1 [Example 186, (2S)-3-[4-(4-chlorophenyl)-4-hydroxypiperidin-1-yl]-2-[(S)-(2-methoxyphenyl)(1-naphthyl)methyl]-2-methyl-3-oxopropanenitrile]
ER/IL-6
  Emax: 60%
  IC50: 2460 nM
other
  melting point: 202 to 204 °C
CK
  Emax: 11%

## COCC(C#N)(C(=O)N1CCN(CCCN(C)C)CC1)C(c1ccccc1OC)c1cccc2ccccc12 (stereo not drawn) [Example 204, 3-{4-[3-(dimethylamino)propyl]piperazin-1-yl}-2-(methoxymethyl)-2-[(2-methoxyphenyl)(1-naphthyl)methyl]-3-oxopropanenitrile]
ER/IL-6
  Emax: 23%
  IC50: 117 nM
other
  melting point: 174 to 175 °C
CK
  Emax: -34%

## COC(=O)[C@@](C#N)(Cc1ccccn1)[C@H](c1ccccc1OC)c1cccc2ccccc12 (relative stereo) [Example 143, Methyl (2S*,3S*)-2-cyano-3-(2-methoxyphenyl)-3-(1-naphthyl)-2-(pyridin-2-ylmethyl)propanoate]
ER/IL-6
  Emax: 91%
  IC50: 39 nM
other
  melting point: 194.4 to 196.3 °C
CK
  EC50: 74 nM
  Emax: 38%

## COC(=O)[C@@](C#N)(Cc1ccc(-c2cccc(C(F)(F)F)c2)cc1)[C@H](c1ccccc1OC)c1cccc2ccccc12 (relative stereo) [Example 153, Methyl (2S*,3S*)-2-cyano-3-(2-methoxyphenyl)-3-(1-naphthyl)-2-{[3′-(trifluoromethyl)-1,1′-biphenyl-4-yl]methyl}propanoate]
ER/IL-6
  Emax: 150%
  IC50: 149 nM
other
  melting point: 202 to 204.1 °C
CK
  Emax: 15%

## COC[C@](C#N)(C(=O)NCC(C)(C)C)[C@H](c1ccccc1OC)c1cccc2ccccc12 (relative stereo) [Example 181, (2S*,3S*)-2-cyano-N-(2,2-dimethylpropyl)-2-(methoxymethyl)-3-(2-methoxyphenyl)-3-(1-naphthyl)propanamide]
ER/IL-6
  Emax: 104%
  IC50: 389 nM
other
  melting point: 184.9 to 185.5 °C
CK
  Emax: 2%

## COc1ccccc1[C@H](c1cccc2ccccc12)[C@@](C)(C#N)C(=O)N1CCC(c2c[nH]c3ccccc23)CC1 [Example 187, (2S)-3-[4-(1H-indol-3-yl)piperidin-1-yl]-2-[(S)-(2-methoxyphenyl)(1-naphthyl)methyl]-2-methyl-3-oxopropanenitrile]
ER/IL-6
  Emax: 134%
  IC50: 21 nM
other
  melting point: 267 to 268 °C
CK
  EC50: 50 nM
  Emax: 48%

## COC[C@@](C#N)(C(=O)N1CCN(c2cnccn2)CC1)[C@@H](c1ccccc1OC)c1cccc2ccccc12 [Example 224, (2R,3R)-2-(methoxymethyl)-3-(2-methoxyphenyl)-3-(1-naphthyl)-2-[(4-pyrazin-2-ylpiperazin-1-yl)carbonyl]propanenitrile]
ER/IL-6
  Emax: 77%
  IC50: 832 nM
other
  melting point: 150 °C
CK
  Emax: -14%
